Among the data in patent US20260242391A1 (priority 2023, published 2026) are EC50 and IC50 values, retold here.

One data set relates to HL-60. In words: HL-60 differentiation potency. Type of data set: cell-based. Particulars: Homo sapiens.
The nature of a further data set: in vitro. Particulars: human.

What is called EC50 is the concentration giving half of the maximal effect. Read a low EC50 as higher potency in that assay. As usually defined, the IC50 is the point on the concentration scale where inhibition reaches its midpoint. Read a high IC50 as weaker potency. Regarding `C[C@H]1[C@@H](Oc2ccc(C(=O)N[C@H]3CCC[C@H]3C(=O)O)cc2)O[C@@H]2O[C@@]3(C)CC[C@H]4[C@H](C)CC[C@@H]1[C@@]24OO3` [Compound 187, (1R,2S)-2-(4-(((3R,5aS,6R,8aS, 9R,10S,12R, 12aR)-3,6,9-trimethyldeca-hydro-12H-3,12-epoxy[1,2]dioxepino[4,3-i]isochromen-10-yl)oxy)benzamido) cyclopentane-1-carboxylic acid], the EC50 in the data set on HL-60 came to 0.0333 µM. The same compound came in with an IC50 in “in vitro” of 2.4 µM.

With `C[C@H]1[C@@H](OCC(=O)N[C@H](C(=O)O)C(C)(C)C)O[C@@H]2O[C@@]3(C)CC[C@H]4[C@H](C)CC[C@@H]1[C@@]24OO3` [Compound 188, (S)-3,3-dimethyl-2-(2-(((3R,5aS,6R, 8aS,9R,10S,12R, 12aR)-3,6,9-trimethyldeca-hydro-12H-3,12-epoxy[1,2]dioxepino[4,3-i]isochromen-10-yl)oxy)acetamido) butanoic acid], the EC50 in the data set with HL-60 came to 5.06 µM. Also, in “in vitro”, the IC50 is > 20 µM.

Turning to `C[C@H]1[C@@H](O[C@H]2CC[C@@H](C(=O)N[C@H](C(=O)O)c3ccccc3)CC2)O[C@@H]2O[C@@]3(C)CC[C@H]4[C@H](C)CC[C@@H]1[C@@]24OO3` [Compound 189, (S)-2-phenyl-2-((1R,4R)-4-(((3R,5aS,6R,8aS, 9R,10S,12R, 12aR)-3,6,9-trimethyldeca-hydro-12H-3,12-epoxy[1,2]dioxepino[4,3-i]isochromen-10-yl)oxy)cyclo-hexane-1-carboxamido) acetic acid], the response in the data set with HL-60 was half-maximal at 1.89 µM (EC50). This compound also registered a half-inhibitory concentration (IC50) in the data set “in vitro” of 15.2 µM.

The compound `C[C@H]1[C@@H](Oc2ccc(C(=O)N3C[C@H]4[C@@H]([C@H]3C(=O)O)C4(C)C)cc2)O[C@@H]2O[C@@]3(C)CC[C@H]4[C@H](C)CC[C@@H]1[C@@]24OO3` [Compound 190, (1R,2S,5S)-6,6-dimethyl-3-(4-(((3R,5aS,6R,8aS, 9R,10S,12R, 12aR)-3,6,9-trimethyldeca-hydro-12H-3,12-epoxy[1,2]dioxepino[4,3-i]isochromen-10-yl)oxy)benzoyl)-3-azabicyclo[3.1.0] hexane-2-carboxylic acid] displayed a concentration giving a half-maximal response (EC50) in the data set on HL-60 of 0.0803 µM. The same compound displayed a concentration for half-maximal inhibition (IC50) in “in vitro” of 0.33 µM.

In the data set on HL-60, `C[C@H]1[C@@H](OCC(=O)N2C[C@@H]3CCC[C@@H]3[C@H]2C(=O)O)O[C@@H]2O[C@@]3(C)CC[C@H]4[C@H](C)CC[C@@H]1[C@@]24OO3` [Compound 191, (1S,3aR,6aS)-2-(2-(((3R,5aS,6R, 8aS,9R,10S,12R, 12aR)-3,6,9-trimethyldeca-hydro-12H-3,12-epoxy[1,2]dioxepino[4,3-i]isochromen-10-yl)oxy)acetyl) octahydrocyclo-penta[c]pyrrole-1-carboxlic acid] gave an EC50 of 9.73 µM. In addition, in the data set “in vitro”, the IC50 was > 20 µM.

Turning to `C[C@H]1[C@@H](Oc2ccc(C3CC3C(=O)O)cc2)O[C@@H]2O[C@@]3(C)CC[C@H]4[C@H](C)CC[C@@H]1[C@@]24OO3` (stereo partly drawn) [Compound 192, 2-(4-(((3R,5aS,6R,8aS, 9R,10S,12R, 12aR)-3,6,9-trimethyldeca-hydro-12H-3,12-epoxy[1,2]dioxepino[4,3-i]isochromen-10-yl)oxy)phenyl) cyclopropane-1-carboxylic acid], in the data set on HL-60, the EC50 turned out to be 0.0672 µM. This compound also returned a half-inhibitory concentration (IC50) in the data set “in vitro” of 3.5 µM.

In turn, `CO[C@]1(CO[C@H]2O[C@@H]3O[C@@]4(C)CC[C@H]5[C@H](C)CC[C@@H]([C@H]2C)[C@@]35OO4)CC[C@H](C(=O)O)CC1` [Compound 193, (1R,4s)-4-methoxy-4-((((3R,5aS,6R,8aS, 9R,10S,12R, 12aR)-3,6,9-trimethyldeca-hydro-12H-3,12-epoxy[1,2]dioxepino[4,3-i]isochromen-10-yl)oxy)methyl) cyclohexane-1-carboxylic acid] came in with a concentration for a half-maximal effect (EC50) in the data set on HL-60 of 7.03 µM. Moreover, in “in vitro”, the 50% inhibitory concentration (IC50) is > 20 µM.

Compound `C[C@H]1[C@@H](Oc2ccc([C@H](N)C(=O)O)cc2)O[C@@H]2O[C@@]3(C)CC[C@H]4[C@H](C)CC[C@@H]1[C@@]24OO3` [Compound 194, (S)-2-amino-2-(4-(((3R,5aS,6R,8aS, 9R,10S,12R, 12aR)-3,6,9-trimethyldeca-hydro-12H-3,12-epoxy[1,2]dioxepino[4,3-i]isochromen-10-yl)oxy)phenyl) acetic acid] showed an EC50 in the data set on HL-60 of 17.7 µM. Moreover, the half-inhibitory concentration (IC50) in the data set “in vitro” was > 20 µM.

Compound `C[C@H]1[C@H](OCc2ccc(C(=O)O)cc2C(F)(F)F)O[C@@H]2O[C@@]3(C)CC[C@H]4[C@H](C)CC[C@@H]1[C@@]24OO3` [Compound 195, 3-(trifluoromethyl)-4-((((3R,5aS,6R,8aS, 9R,10R,12R, 12aR)-3,6,9-trimethyldeca-hydro-12H-3,12-epoxy[1,2]dioxepino[4,3-i]isochromen-10-yl)oxy)methyl) benzoic acid] had a 50% effective concentration (EC50) with HL-60 of 0.156 µM. In the data set “in vitro”, this compound had an IC50 of 10 µM.

In the case of `C[C@@H]1CC[C@H]2[C@@H](C)[C@](OCc3ccc(C(=O)O)cc3Cl)(C(F)(F)F)O[C@@H]3O[C@@]4(C)CC[C@@H]1[C@]32OO4` [Compound 196], the EC50 in the data set on HL-60 is 0.0103 µM. The same compound registered an IC50 in “in vitro” of 0.03 µM.

`C[C@@H]1CC[C@H]2[C@@H](C)C(OCc3ccc(C(=O)O)cc3C(F)(F)F)O[C@@H]3O[C@@]4(C)CC[C@@H]1[C@]32OO4` (stereo partly drawn) [Compound 197, 3-(trifluoromethyl)-4-((((3R,5aS,6R,8aS, 9R,12R, 12aR)-3,6,9-trimethyldeca-hydro-12H-3,12-epoxy[1,2]dioxepino[4,3-i]isochromen-10-yl)oxy)methyl) benzoic acid] gave an EC50 with HL-60 of 0.066 µM. In the data set “in vitro”, the midpoint of inhibition, the IC50, lay at 5.38 µM.

Take `C[C@H]1[C@@H](Oc2ccc(C(=O)N[C@H]3CCC(=O)NC3=O)cc2)O[C@@H]2O[C@@]3(C)CC[C@H]4[C@H](C)CC[C@@H]1[C@@]24OO3` [Compound 198, N-((S)-2,6-dioxopiperidin-3-yl)-4-(((3R,5aS,6R,8aS, 9R,10S,12R, 12aR)-3,6,9-trimethyldeca-hydro-12H-3,12-epoxy[1,2]dioxepino[4,3-i]isochromen-10-yl)oxy)benzamide]: the EC50 in the data set with HL-60 came to 0.0479 µM. Moreover, in “in vitro”, the IC50 is 4 µM.

On to `CO[C@]1(CO[C@H]2O[C@@H]3O[C@@]4(C)CC[C@H]5[C@H](C)CC[C@@H]([C@H]2C)[C@@]35OO4)CC[C@@H](C(=O)O)CC1` [Compound 199, (1S,4r)-4-methoxy-4-((((3R,5aS,6R,8aS, 9R,10S,12R, 12aR)-3,6,9-trimethyldeca-hydro-12H-3,12-epoxy[1,2]dioxepino[4,3-i]isochromen-10-yl)oxy)methyl) cyclohexane-1-carboxylic acid], for which the half-maximal effective concentration (EC50) with HL-60 was 6.48 µM. In addition, the IC50 in “in vitro” was > 20 µM.

As to `C[C@H]1[C@@H](OC[C@]2(F)CC[C@@H](C(=O)O)CC2)O[C@@H]2O[C@@]3(C)CC[C@H]4[C@H](C)CC[C@@H]1[C@@]24OO3` [Compound 200, (1R,4s)-4-fluoro-4-((((3R,5aS,6R,8aS, 9R,10S,12R, 12aR)-3,6,9-trimethyldeca-hydro-12H-3,12-epoxy[1,2]dioxepino[4,3-i]isochromen-10-yl)oxy)methyl) cyclohexane-1-carboxylic acid], it took 4.47 µM to reach a half-maximal effect in the data set with HL-60 (EC50). The concentration for half-maximal inhibition (IC50) in the data set “in vitro” amounted to 15.3 µM.
